Measured values: patent US11040966B2, “Benzimidazole-proline derivatives” (IDORSIA PHARMACEUTICALS LTD, priority 2012, dated 2021)
Read-outs that look alike come from different tables or passages of the source.

Experiments:
[1] = test system: amyloid precursor protein transgenic mice; conditions: after acute sleep restriction; cited from earlier work
rats = rats treated with the compound; cited from earlier work
rat = conditions: cited from earlier work
mouse = conditions: administered chronically; cited from earlier work
humans = conditions: indication primary insomnia; cited from earlier work
[2] = Measurement of brain and systemic concentration after oral administration; format: in vivo; conditions: rat, male wistar rats, 3 h after oral administration (100 mg/kg), n=3
Method: Measurement of Brain and Systemic Concentration after Oral Administration:
In order to assess brain penetration, the concentration of the compound is measured in plasma ([P]), and brain ([B]), sampled 3 h (or at different time points) following oral administration (e.g. 100 mg/kg) to male wistar rats. The compounds are formulated e.g. in 100% PEG 400. Samples are collected in the same animal at the same time point (+/−5 min). Blood is sampled from the vena cava caudalis into containers with EDTA as anticoagulant and centrifuged to yield plasma. Brain is sampled after cardiac perfusion of 10 mL NaCl 0.9% and homogenized into one volume of cold phosphate buffer (pH 7.4). All samples are extracted with MeOH and analyzed by LC-MS/MS. Concentrations are determined with the help of calibration curves.

rodents = conditions: cited from earlier work
[3] = brain, read-out: concentration of the compound in brain ([B])
[4] = plasma, read-out: concentration of the compound in plasma ([P])

Row | Compound | concentration at 3 h [2, 3] [ng/g] | concentration at 3 h [2, 4] [ng/mL] | also measured
1 | CNC(=O)[C@@H](c1ccccc1)N1CCc2cc(OC)c(OC)cc2[C@@H]1CCc1ccc(C(F)(F)F)cc1 [(2R)-2-{(1S)-6,7-dimethoxy-1-[2-(4-trifluoromethyl-phenyl)-ethyl]-3,4-dihydro-1H-isoquinolin-2-yl}-N-methyl-2-phenyl-acetamide] |  |  | brain levels of amyloid-beta (Aβ) and Aβ plaque deposition [1]: decreased; declarative and non-declarative learning and memory (rats): intact; activity in nicotine self-administration model (rat): displayed pharmacological activity; activity in mouse model of depression (mouse): antidepressant-like activity; clinical efficacy (humans): showed clinical efficacy
2 | Cc1ccc(-n2nccn2)c(C(=O)N2CCC[C@@]2(C)c2nc3cc(Br)cc(C)c3[nH]2)c1 [Example 5.19, [(S)-2-(5-Bromo-7-methyl-1H-benzoimidazol-2-yl)-2-methyl-pyrrolidin-1-yl]-(5-methyl-2-[1,2,3]triazol-2-yl-phenyl)-methanone] | 3880 | 2100 | 
3 | COc1ccc(-n2nccn2)c(C(=O)N2CCC[C@@]2(C)c2nc3c(C)c(Cl)ccc3[nH]2)c1 [Example 5.36, [(S)-2-(5-Chloro-4-methyl-1H-benzoimidazol-2-yl)-2-methyl-pyrrolidin-1-yl]-(5-methoxy-2-[1,2,3]triazol-2-yl-phenyl)-methanone] | 1810 | 1280 | 
4 | Cc1ccc(-c2ncccn2)c(C(=O)N2CCC[C@@]2(C)c2nc3cc(Br)cc(C)c3[nH]2)c1 [Example 5.277, [(S)-2-(5-Bromo-7-methyl-1H-benzoimidazol-2-yl)-2-methyl-pyrrolidin-1-yl]-(5-methyl-2-pyrimidin-2-yl-phenyl)-methanone] | 5880 | 3560 | 
5 | Cn1c(SCC(=O)N2CCC[C@H]2C(=O)Nc2ccccc2-c2ccccc2)nc2ccccc21 [N-biphenyl-2-yl-1-{[(1-methyl-1H-benzimidazol-2-yl)sulfanyl]acetyl}-L-prolinamide] |  |  | behavioral (locomotor sensitization) and molecular (transcriptional responses) changes induced by repeated amphetamine administration (rodents): reduced
